The record followed here is article PMC12040169 (PLOS Biology, 2025).

The data set can be described thus: in vitro. The following applies: human, hela cells, % viability.

On to `O=C(CSc1nc2ccccc2s1)OCc1ccc([N+](=O)[O-])cc1` [CBK262547], for which the viability at 28.5 h, 10 µM stood at 91.1%.

As for `COCCN(C(=O)c1cc2cc(C)ccc2s1)C1CCS(=O)(=O)C1` (centres unmarked) [CBK304289], the viability at 28.5 h, 10 µM turned out to be 87.3%.

For `CCC1CN(C(C)=O)CCC1NCc1ccc(OCC(N)=O)cc1` (centres unmarked) [CBK305168], the viability at 28.5 h, 10 µM turned out to be 102%.

As to `CC(=O)Nc1cccc(-n2cnnc2SCC2CCCCC2)c1` [CBK305054], the viability at 28.5 h, 10 µM was 96.2%.

In the case of `COc1ccccc1CN1CC[C@H]2NC(=O)CNC(=O)C3(C/C=C/C[C@H]2C1)CCN(C(C)=O)CC3` [CBK292107], the viability at 28.5 h, 10 µM is 111%.

In the case of `Cc1cc(C)c(-c2csc(NS(=O)(=O)c3cccc(C(=O)O)c3)n2)cc1C` [CBK296698], the viability at 28.5 h, 10 µM is 118%.

With `COc1cccc(CC(=O)N2CCC(Cc3ccccc3-c3ccccc3)(C(N)=O)CC2)c1` [CBK285730], the viability at 28.5 h, 10 µM was found to be 96.7%.

`O=C(NCCc1cccs1)NC1CCCc2c1cnn2CCO` (centres unmarked) [CBK306324]: the viability at 28.5 h, 10 µM was found to be 92.6%.

Consider `COc1cc(CO)cc(I)c1OCC(=O)Nc1ccccc1` [CBK265950], for which the viability at 28.5 h, 10 µM turned out to be 112%.

As to `O=C(Cc1n[nH]c(=O)[nH]c1=O)N/N=C/c1ccc(C(=O)O)cc1` [CBK263525], the viability at 28.5 h, 10 µM turned out to be 99.5%.

On to `CC(C)(C)c1ccc(-c2nc(N)cc3ccccc23)cc1` [CBK085720], for which the viability at 28.5 h, 10 µM is 109%.

Regarding `c1ccc2c(CN3CCCNCC3)cccc2c1` [CBK028773], the viability at 28.5 h, 10 µM stood at 81%.

Consider `O=C(NC(Cc1ccccc1)C(O)c1nccs1)C1CC=CCC1` (centres unmarked) [CBK284763], for which the viability at 28.5 h, 10 µM turned out to be 95.3%.

As for `Cc1nn(C)c(Cl)c1CN1CCCC(CCC(=O)N2CCN(C)CC2)C1` (centres unmarked) [CBK307716], the viability at 28.5 h, 10 µM was 92.5%.

As to `CC1CCN(S(=O)(=O)c2ccc(C(=O)N3CCCCC3C(=O)O)cc2)CC1` (centres unmarked) [CBK297094], the viability at 28.5 h, 10 µM was found to be 89.8%.

For `CN(C)CCCNC(=O)c1cnc2cc(Cl)ccc2c1O` [CBK107354], the viability at 28.5 h, 10 µM was found to be 94.4%.

In the case of `O=C(CCOc1ccccc1)Nc1c(F)cc(F)cc1OC1CCNCC1` [CBK045897T], the viability at 28.5 h, 10 µM was found to be 105%.

With `CCC(O)CN1CCCC(c2nc3cc(C)ccc3[nH]2)C1` (centres unmarked) [CBK304854], the viability at 28.5 h, 10 µM was 88.8%.

Regarding `Nc1ccc2ccc(Cl)nc2n1` [CBK039198], the viability at 28.5 h, 10 µM was found to be 113%.

With `Cc1c(F)cccc1CN(CCCN)C(=O)Nc1ccccc1C(C)(C)C` [CBK034699C], the viability at 28.5 h, 10 µM amounted to 89.3%.

With `CCOc1cccc(-c2cn3ccnc3c(NC3CC3)n2)c1` [CBK066736], the viability at 28.5 h, 10 µM was 91.6%.

Regarding `CCN(CC)C(=O)CN1CCC(Oc2nccnc2OCCN2CCOCC2)CC1` [CBK082928], the viability at 28.5 h, 10 µM is 93.4%.

As to `CS(=O)(=O)c1ccc(-n2cc(-c3cccnc3)nn2)cc1` [CBK113061], the viability at 28.5 h, 10 µM is 104%.

With `Cc1ccc(OCCCC(=O)Nc2ccc(C(N)=O)cc2)c(C)c1` [CBK268032], the viability at 28.5 h, 10 µM came to 93.8%.

On to `COCCNC(=O)c1cnc2ccc(OC)cc2c1O` [CBK159999], for which the viability at 28.5 h, 10 µM stood at 95.9%.

Regarding `CC(C)NC(=O)N1CCc2sccc2C1c1ccc(Cl)cc1` (centres unmarked) [CBK018247], the viability at 28.5 h, 10 µM worked out at 108%.

Take `O=C(c1cnccn1)N1CCN(c2nc3c(F)cccc3s2)CC1` [CBK287722]: the viability at 28.5 h, 10 µM was found to be 91.6%.

Take `NC(=O)C1CCN(C(=O)CN2CCN(Cc3ccccc3)CC2)CC1` [CBK265971C]: the viability at 28.5 h, 10 µM worked out at 82.8%.

`COc1cc(C(=O)N2CCC(n3c(=O)[nH]c4c(C)cccc43)CC2)ccc1C` [CBK155372]: the viability at 28.5 h, 10 µM came to 94.2%.

As to `Cc1ccc(C)c(CC(=O)N(C)C2CCN(C3CCOCC3)CC2)c1` [CBK304964], the viability at 28.5 h, 10 µM came out at 87.4%.

As to `O=C1CC(C(=O)Nc2ccccn2)c2ccccc2N1` (centres unmarked) [CBK297771], the viability at 28.5 h, 10 µM was found to be 101%.

With `Cc1cc2c(cc1C)C(O)CC1(CCN(CC(=O)NC3CCCCC3)CC1)O2` (centres unmarked) [CBK286399], the viability at 28.5 h, 10 µM was 94%.

`O=S(=O)(Cc1cc(Cl)ccc1C(F)(F)F)c1cc2c(N3CCNCC3)nccc2s1` [CBK049960C]: the viability at 28.5 h, 10 µM was found to be 115%.

For the molecule `Clc1ccc(OCCCn2ccnc2)c(CN2CCSCC2)c1` [CBK307194], the viability at 28.5 h, 10 µM was 104%.

As to `CC(Cn1cccn1)NCC(=O)N(C)C1(C#N)CCCCC1` (centres unmarked) [CBK305096], the viability at 28.5 h, 10 µM was 91.5%.

Take `CCCC/C=C/c1nccnc1NCc1ccncc1` [CBK037500]: the viability at 28.5 h, 10 µM was determined as 108%.

For `Cc1cccc(-c2csc3c(=O)[nH]c(N4CCC(C(=O)NCc5cccnc5)CC4)nc23)c1` [CBK215624], the viability at 28.5 h, 10 µM stood at 86.8%.

On to `Cc1noc(C)c1S(=O)(=O)NCCc1c[nH]c2ccccc12` [CBK067311], for which the viability at 28.5 h, 10 µM was determined as 101%.

For the molecule `CN1C(=O)C2(CC(=O)N(Cc3ccccc3)C2=O)c2cc(F)ccc21` (centres unmarked) [CBK075268], the viability at 28.5 h, 10 µM is 98.6%.

With `Cc1cc(C)n2nc(NC(=O)C(C)Oc3ccccc3)nc2n1` (centres unmarked) [CBK270039], the viability at 28.5 h, 10 µM was 89.9%.

On to `Cc1nncn1-c1ccc(Cl)cc1C(=O)c1ccccc1Cl` [CBK012372], for which the viability at 28.5 h, 10 µM was 101%.

`COc1cccc(C2(NC(=O)c3c(C)noc3C)CCCC2)c1` [CBK283659]: the viability at 28.5 h, 10 µM came out at 98.1%.

As to `CC(=O)Nc1ccc([C@@H](O)[C@H]2COCC(=O)N2C)cc1` [CBK289059], the viability at 28.5 h, 10 µM came out at 97.7%.

For `CCN(CC1CCN(c2ccccn2)CC1)C(=O)C1(C#N)CCCC1` [CBK304096], the viability at 28.5 h, 10 µM worked out at 98.7%.

Regarding `COc1ccc(S(=O)(=O)Nc2ccc(S(=O)(=O)Nc3nccs3)cc2)c([N+](=O)[O-])c1` [CBK266801], the viability at 28.5 h, 10 µM amounted to 95.6%.

`O=C(c1cccs1)N1CCC(c2n[nH]c3ncccc23)CC1` [CBK284904]: the viability at 28.5 h, 10 µM came out at 92.3%.

On to `COc1ccc(OCC(=O)Nc2nonc2-c2ccccc2)cc1` [CBK287798], for which the viability at 28.5 h, 10 µM was determined as 93.9%.

On to `COc1cc(/C=C2/SC(=N)NC2=O)ccc1OCc1ccccc1[N+](=O)[O-]` [CBK262181], for which the viability at 28.5 h, 10 µM is 85.4%.

`Oc1c(CN2CCOCC2)ccc(CN2CCOCC2)c1O` [CBK269979]: the viability at 28.5 h, 10 µM amounted to 100%.

Consider `Cc1ccc(-n2c(=O)[nH]cc(C(=O)Nc3cccc(Cl)c3C)c2=O)cc1C` [CBK287551], for which the viability at 28.5 h, 10 µM is 101%.

As for `COc1ccc(/C=N/NC(=O)c2ccc(CN3CCOCC3)cc2)cc1[N+](=O)[O-]` [CBK262708], the viability at 28.5 h, 10 µM was 93%.

As to `Clc1ccc(-c2c[nH]c([C@@H]3COCCN3Cc3c[nH]cn3)n2)cc1` [CBK289316], the viability at 28.5 h, 10 µM worked out at 105%.

Turning to `CN(Cc1ccccc1)C(=O)[C@H]1C[C@@H](O)[C@H](O)[C@@H]2N=C(Nc3ccc(Cl)cc3)S[C@@H]21` [CBK288949], the viability at 28.5 h, 10 µM came out at 105%.

For `CN1C2CCC1CC(OC(c1ccccc1)c1ccccc1)C2` (centres unmarked) [CBK011710G], the viability at 28.5 h, 10 µM amounted to 99.6%.

Turning to `Cc1cc(Cl)c(S(=O)(=O)Nc2ccc(Oc3ccccc3)cc2)cc1OCC(N)=O` [CBK266583], the viability at 28.5 h, 10 µM was found to be 99.8%.

In the case of `O=C(NC1Cc2ccccc2C1)c1cccc(-c2ccc(CC3CCCNC3=O)cc2)c1` (centres unmarked) [CBK285579], the viability at 28.5 h, 10 µM was found to be 94.9%.

As for `O=C(NCc1ccc(Cl)cc1)c1cnc2ccc(C#CCO)cc2c1O` [CBK017979], the viability at 28.5 h, 10 µM turned out to be 92.4%.

Regarding `O=c1cc(-c2ccccc2)nc(SCc2nc(-c3cccs3)no2)[nH]1` [CBK268416], the viability at 28.5 h, 10 µM is 107%.

With `Cn1cc(C2CNCCN2C(=O)c2csc3ccccc23)cn1` (centres unmarked) [CBK304324C], the viability at 28.5 h, 10 µM came out at 108%.

For `COc1ccccc1OCc1ccccc1` [CBK002814], the viability at 28.5 h, 10 µM is 105%.

As to `NC(=O)c1c(NC(=S)NC(=O)c2ccccc2Br)sc2c1CCC2` [CBK265543], the viability at 28.5 h, 10 µM is 89.3%.

`N#Cc1cccc(CSc2nnc(-c3ccccc3O)n2Cc2ccccc2)c1` [CBK267395]: the viability at 28.5 h, 10 µM is 85.8%.

`Nc1cc(-c2ccco2)nn(Cc2c(F)cccc2Cl)c1=O` [CBK282881]: the viability at 28.5 h, 10 µM is 86.1%.

In the case of `Oc1ccc(CCNc2ncnc3[nH]cnc23)cc1` [CBK017724C], the viability at 28.5 h, 10 µM turned out to be 101%.

For the molecule `Cc1cc(C)c2oc(-c3ccc(Cl)c(NC(=O)Cc4ccc(Cl)cc4)c3)nc2c1` [CBK264695], the viability at 28.5 h, 10 µM amounted to 97.8%.

Take `COc1ccc(-c2cn3ccnc3c(Nc3ccc(N4CCOCC4)cc3)n2)cc1` [CBK066265]: the viability at 28.5 h, 10 µM is 98.5%.

In the case of `COCCNC(=O)c1cc(-c2ccccc2C)nc2c1cnn2C(C)C` [CBK305392], the viability at 28.5 h, 10 µM came to 111%.

As to `COc1ccc(C2C=C(C)Nc3nc(N)nn32)cc1` (centres unmarked) [CBK287906], the viability at 28.5 h, 10 µM was 91.8%.

Take `C[C@H](NC(=O)N1CCC2(CC1)NCCc1c2[nH]c2ccc(Cl)cc12)c1ccccc1` [CBK047046]: the viability at 28.5 h, 10 µM was 90%.

Take `Cc1nnc(CSc2ncc(-c3ccc(Cl)cc3)n2Cc2ccccc2)o1` [CBK297154]: the viability at 28.5 h, 10 µM is 103%.

In the case of `CCN(CC)C(=O)c1ccc(-n2ccnc2)c(-n2cccc2)c1` [CBK285371], the viability at 28.5 h, 10 µM worked out at 86.3%.

In the case of `CC(=O)Nc1ccc(CCOc2nccnc2/C=C/c2ccccc2)cc1` [CBK106880], the viability at 28.5 h, 10 µM was found to be 94.1%.

On to `CCc1nc2c(OCC(=O)c3ccc(Cl)cc3Cl)cccn2c1N(C)C(=O)C1CC1` [CBK147712], for which the viability at 28.5 h, 10 µM is 89.7%.

For the molecule `O=C(CSc1nnc(-c2ccc(Cl)cc2)n1-c1ccccc1)N/N=C/c1ccccn1` [CBK263001], the viability at 28.5 h, 10 µM was 94.6%.

For `O=C(O)CNC(=O)/C(=C\c1ccccc1F)NC(=O)c1ccccc1` [CBK263961], the viability at 28.5 h, 10 µM came to 96.5%.

Take `COCCNC(=O)c1ccc(-c2ccccc2)nc1NCC1CC1` [CBK106242]: the viability at 28.5 h, 10 µM was 92%.

As to `c1ccc(C2CCCNC2)cc1` (centres unmarked) [CBK011753], the viability at 28.5 h, 10 µM amounted to 100%.

With `Cc1ccc(SCc2ccc(C(=O)Nc3ccccc3C(=O)N3CCCC3)cc2)cc1` [CBK268217], the viability at 28.5 h, 10 µM was determined as 112%.

With `O=C(O)CCCC(=O)NC12CC3CC(CC(C3)C1)C2` [CBK286958], the viability at 28.5 h, 10 µM was 97.4%.

Consider `O=C(O)CSc1nnc(SCc2cccc3ccccc23)s1` [CBK266215], for which the viability at 28.5 h, 10 µM stood at 81.4%.

The term viability denotes a read-out of living cells in per cent, often relative to untreated cells.
